From patent US20260191858A1, “COMBINATION THERAPIES” (Kallyope, Inc., priority 2022, published 2026)

Target: T1, human GPR119 (hGPR119) (Homo sapiens, UniProt Q8TDV5)
T1 construct: expressed in transfected cells; host or cells: CHO-K1
T1 sequence (Q8TDV5 1-335): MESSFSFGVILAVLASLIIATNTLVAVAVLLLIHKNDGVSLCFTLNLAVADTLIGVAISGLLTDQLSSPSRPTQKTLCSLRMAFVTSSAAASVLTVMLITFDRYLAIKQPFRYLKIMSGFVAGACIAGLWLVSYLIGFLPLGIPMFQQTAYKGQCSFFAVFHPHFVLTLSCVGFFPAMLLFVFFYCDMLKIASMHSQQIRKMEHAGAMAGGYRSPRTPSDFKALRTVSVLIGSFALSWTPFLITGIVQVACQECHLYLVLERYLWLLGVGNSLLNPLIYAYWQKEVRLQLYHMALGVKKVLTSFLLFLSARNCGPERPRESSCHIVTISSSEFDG
Test: cAMP accumulation assay in CHO-K1 cells stably expressing hGPR119
Format: cell-based
Details: cAMP HTRF, 60 minutes
Experimental: CHO-K1 cells stably expressing human GPR119 (hGPR119) were prepared by transfection of a GPR119-carrying plasmid using Lipofectamine 2000 (following manufacturer instructions). A stable cell line was established using the limiting dilution method with geneticine selection. Assay-ready frozen (ARF) cells were prepared and used throughout the study.
The assay was performed in a 384-well plate format using the CAMP Gs dynamic assay kit from Cisbio. ARF cells expressing hGPR119 were thawed, washed and then resuspended in CAMP stimulation buffer at a cell density of 1.1×10^6 cells/mL. Cells were plated at a density of ~10,000 cells/well (9 μL/well). Dose response curves for the tested compounds were prepared in a cAMP stimulation buffer, containing 0.1% Tween 80 at 4 fold the final concentration. The compounds were then transferred to the cell plates using BRAVO (3 μL/well) and the plates were incubated for 60 minutes at 37° C./5% CO2. Detection buffer (10 μL, prepared as described in the CAMP Gs dynamic kit) were added to each well, and the plates were incubated at ambient temperature for 1 hr.
RT-FRET was measured using a ClarioSTAR plate reader, calculating the ratio between emissions at 665 nm and 620 nm (HTRF ratio). The HTRF ratio for positive (Max) and negative (Min) controls were used to normalize HTRF data and generate values for % activity. EC50 and Max activity values were determined using a standard 4-parameter fit.

| Compound | EC50 |
| --- | --- |
| O=C(NC(CO)(CO)CO)C1CN(C(=O)Cc2ccc(OCCCC3CCN(c4ncc(Cl)cn4)CC3)cc2F)C1 [Compound A4, 1-[2-[4-[3-[1-(5-chloropyrimidin-2-yl)-4-piperidyl]propoxy]-2-fluoro-phenyl]acetyl]-N-[2-hydroxy-1,1-bis(hydroxymethyl)ethyl]azetidine-3-carboxamide] | ≤ 100 nM |
| CCCc1cnc(N2CCC(CCCOc3ccc(CC(=O)N4CC(CNCC(CO)CO)C4)c(F)c3)CC2)nc1 [Compound A40, 2-(2-fluoro-4-(3-(1-(5-propylpyrimidin-2-yl)piperidin-4-yl)propoxy)phenyl)-1-(3-(((3-hydroxy-2-(hydroxymethyl)propyl)amino)methyl)azetidin-1-yl)ethan-1-one] | ≤ 100 nM |
| 1-[2-[2-fluoro-4-[3-[1-[5- (methoxymethyl)pyrimidin-2-yl]-4- piperidyl]propoxy]phenyl]acetyl]-N-[2-[2- hydroxy-1,1- bis(hydroxymethyl)ethyl]carbamoylamino] ethyl]azetidine-3-carboxamide [Compound A2] | 100 to 1000 nM |
| O=C(Cc1ccc(OCCCC2CCN(c3ncc(Cl)cn3)CC2)cc1F)N1CC(CCNC[C@H](O)[C@@H](O)[C@H](O)[C@H](O)CO)C1 [Compound A31, 2-[4-[3-[1-(5-chloropyrimidin-2-yl)-4-piperidyl]propoxy]-2-fluoro-phenyl]-1-[3-[2-[[(2S,3R,4R,5R)-2,3,4,5,6-pentahydroxyhexyl]amino]ethyl]azetidin-1-yl]ethanone] | 100 to 1000 nM |
| O=C(Cc1ccc(OCCCC2CCN(c3ncc(Cl)cn3)CC2)cc1F)N1CC(CN[C@@H]2C[C@H](O)[C@@H](O)[C@H]2O)C1 (racemic) [Compound A21, 2-[4-[3-[1-(5-chloropyrimidin-2-yl)-4-piperidyl]propoxy]-2-fluoro-phenyl]-1-[3-[[[rac-(1R,2S,3R,4S)-2,3,4-trihydroxycyclopentyl]amino]methyl]azetidin-1-yl]ethanone] | 100 to 1000 nM |
| O=C(Cc1ccc(OCCCC2CCN(c3ncc(Cl)cn3)CC2)cc1F)N1CC(CNC(CO)(CO)CO)C1 [Compound A16, 2-[4-[3-[1-(5-chloropyrimidin-2-yl)-4-piperidyl]propoxy]-2-fluoro-phenyl]-1-[3-[[[2-hydroxy-1,1-bis(hydroxymethyl)ethyl]amino]methyl]azetidin-1-yl]ethanone] | ≤ 100 nM |
| O=C(NCCNCCC1CN(C(=O)Cc2ccc(OCCCC3CCN(c4ncc(Cl)cn4)CC3)cc2F)C1)NC(CO)(CO)CO [Compound A30, 1-(2-((2-(1-(2-(4-(3-(1-(5-chloropyrimidin-2-yl)piperidin-4-yl)propoxy)-2-fluorophenyl)acetyl)azetidin-3-yl)ethyl)amino)ethyl)-3-(1,3-dihydroxy-2-(hydroxymethyl)propan-2-yl)urea] | 100 to 1000 nM |
| O=C(CC1CN(C(=O)Cc2c(F)cc(OCCCC3CCN(c4ncc(Cl)cn4)CC3)cc2F)C1)NCC(O)(CO)CO [Compound A9, 2-[1-[2-[4-[3-[1-(5-chloropyrimidin-2-yl)-4-piperidyl]propoxy]-2,6-difluoro-phenyl]acetyl]azetidin-3-yl]-N-[2,3-dihydroxy-2-(hydroxymethyl)propyl]acetamide] | ≤ 100 nM |
| O=C(Cc1ccc(OCCCC2CCN(c3ncc(Cl)cn3)CC2)cc1F)N1CC(CN2C[C@@H](O)[C@H](O)C2)C1 (stereo in doubt) [Compound A19, 2-[4-[3-[1-(5-chloropyrimidin-2-yl)-4-piperidyl]propoxy]-2-fluoro-phenyl]-1-[3-[[rac-(3R,4R)-3,4-dihydroxypyrrolidin-1-yl]methyl]azetidin-1-yl]ethanone] | ≤ 100 nM |
| O=C(Cc1ccc(OCCCC2CCN(c3ncc(Cl)cn3)CC2)cc1F)N1CC(CCNCC(O)(CO)CO)C1 [Compound A28, 2-(4-(3-(1-(5-chloropyrimidin-2-yl)piperidin-4-yl)propoxy)-2-fluorophenyl)-1-(3-(2-((2,3-dihydroxy-2-(hydroxymethyl)propyl)amino)ethyl)azetidin-1-yl)ethan-1-one] | 100 to 1000 nM |

Continued, values first:

| EC50 | Compound |
| --- | --- |
| 100 to 1000 nM | O=C(CC1CN(C(=O)Cc2ccc(OCCCC3CCN(c4ncc(Cl)cn4)CC3)cc2F)C1)NCCS(=O)(=O)O [Compound A68, 2-[[2-[1-[2-[4-[3-[1-(5-chloropyrimidin-2-yl)-4-piperidyl]propoxy]-2-fluoro-phenyl]acetyl]azetidin-3-yl]acetyl]amino]ethanesulfonic acid] |
| 100 to 1000 nM | O=C(CC1CN(C(=O)Cc2ccc(OCCCC3CCN(c4ncc(Cl)cn4)CC3)cc2F)C1)NCCCCS(=O)(=O)O [Compound A70, 4-[[2-[1-[2-[4-[3-[1-(5-chloropyrimidin-2-yl)-4-piperidyl]propoxy]-2-fluoro-phenyl]acetyl]azetidin-3-yl]acetyl]amino]butane-1-sulfonic acid] |
| 100 to 1000 nM | COc1cnc(N2CCC(CCCOc3ccc(CC(=O)N4CC(CNC[C@H](O)[C@@H](O)[C@H](O)[C@H](O)CO)C4)c(F)c3)CC2)nc1 (racemic) [Compound A49, 2-[2-fluoro-4-[3-[1-(5-methoxypyrimidin-2-yl)-4-piperidyl]propoxy]phenyl]-1-[3-[rac-(2S,3R,4R,5R)-2,3,4,5,6-pentahydroxyhexyl]amino]methyl]azetidin-1-yl]ethanone] |
| ≤ 100 nM | CCCc1cnc(N2CCC(CCCOc3cc(F)c(CC(=O)N4CC(CNC[C@H](O)[C@@H](O)[C@H](O)[C@H](O)CO)C4)c(F)c3)CC2)nc1 [Compound A48, 2-(2,6-difluoro-4-(3-(1-(5-propylpyrimidin-2-yl)piperidin-4-yl)propoxy)phenyl)-1-(3-((((2S,3R,4R,5R)-2,3,4,5,6-pentahydroxyhexyl)amino)methyl)azetidin-1-yl)ethan-1-one] |
| 100 to 1000 nM | O=C(NCCS(=O)(=O)O)C1CN(C(=O)Cc2ccc(OCCCC3CCN(c4ncc(Cl)cn4)CC3)cc2F)C1 [Compound A63, 2-[[1-[2-[4-[3-[1-(5-chloropyrimidin-2-yl)-4-piperidyl]propoxy]-2-fluoro-phenyl]acetyl]azetidine-3-carbonyl]amino]ethanesulfonic acid] |
| ≤ 100 nM | O=C(Cc1ccc(OCCCC2CCN(c3ncc(Cl)cn3)CC2)cc1F)N1CC(CNC[C@H](O)[C@H](O)[C@H](O)CO)C1 [Compound A60, 2-[4-[3-[1-(5-chloropyrimidin-2-yl)-4-piperidyl]propoxy]-2-fluoro-phenyl]-1-[3-[[[(2S,3S,4R)-2,3,4,5-tetrahydroxypentyl]amino]methyl]azetidin-1-yl]ethanone] |
| ≤ 100 nM | CCOc1cnc(N2CCC(CCCOc3ccc(CC(=O)N4CC(CC(=O)NCC(O)(CO)CO)C4)c(F)c3)CC2)nc1 [Compound A57, N-[2,3-dihydroxy-2-(hydroxymethyl)propyl]-2-[1-[2-[4-[3-[1-(5-ethoxypyrimidin-2-yl)-4-piperidyl]propoxy]-2-fluoro-phenyl]acetyl]azetidin-3-yl]acetamide] |
| 100 to 1000 nM | O=C(NCCCCCCS(=O)(=O)O)C1CN(C(=O)Cc2ccc(OCCCC3CCN(c4ncc(Cl)cn4)CC3)cc2F)C1 [Compound A67, 6-[[1-[2-[4-[3-[1-(5-chloropyrimidin-2-yl)-4-piperidyl]propoxy]-2-fluoro-phenyl]acetyl]azetidine-3-carbonyl]amino]hexane-1-sulfonic acid] |
